Patent publication US20230293517A1, “ANTAGONIST COMPOUNDS” (AdoRx Therapeutics Limited, priority 2020, published 2023)

How the values were obtained:
[1] = molecular target: human Adenosine A2a receptor (Homo sapiens (Human), UniProt P29274); assay: Adenosine receptor TR-FRET binding assay (A2a); details: inhibition of binding of 100 nM CA200645, CHO cell membranes
Outline: (§1)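 CHO cell membranes carrying terbium-tagged human A1, A2a, A2b or A3 receptors were incubated 2 h at room temperature with compound and CA200645 tracer (A2b 30 nM; others 100 nM). Specific binding from time-resolved FRET ratios, minus 10 μM XAC background; IC50 converted to Ki (Cheng–Prusoff).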

[2] = molecular target: human Adenosine A2b receptor (Homo sapiens (Human), UniProt P29275); assay: Adenosine receptor TR-FRET binding assay (A2b); details: TR-FRET, inhibition of binding of 30 nM CA200645, CHO cell membranes
Chain of human Adenosine A2b receptor (P29275 whole entry): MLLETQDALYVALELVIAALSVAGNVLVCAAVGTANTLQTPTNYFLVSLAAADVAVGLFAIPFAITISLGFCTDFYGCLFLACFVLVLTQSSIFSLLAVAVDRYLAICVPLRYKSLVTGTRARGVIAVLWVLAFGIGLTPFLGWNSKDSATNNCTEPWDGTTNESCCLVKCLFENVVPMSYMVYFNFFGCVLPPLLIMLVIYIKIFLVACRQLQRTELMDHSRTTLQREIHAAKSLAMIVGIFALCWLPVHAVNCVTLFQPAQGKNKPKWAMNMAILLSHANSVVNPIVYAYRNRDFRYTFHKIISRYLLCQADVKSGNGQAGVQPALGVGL
Outline: as §1

[3] = molecular target: human Adenosine A1 receptor (Homo sapiens (Human), UniProt P30542); assay: Adenosine receptor TR-FRET binding assay (A1); details: inhibition of binding of 100 nM CA200645, CHO cell membranes
Chain of human Adenosine A1 receptor (P30542 whole entry): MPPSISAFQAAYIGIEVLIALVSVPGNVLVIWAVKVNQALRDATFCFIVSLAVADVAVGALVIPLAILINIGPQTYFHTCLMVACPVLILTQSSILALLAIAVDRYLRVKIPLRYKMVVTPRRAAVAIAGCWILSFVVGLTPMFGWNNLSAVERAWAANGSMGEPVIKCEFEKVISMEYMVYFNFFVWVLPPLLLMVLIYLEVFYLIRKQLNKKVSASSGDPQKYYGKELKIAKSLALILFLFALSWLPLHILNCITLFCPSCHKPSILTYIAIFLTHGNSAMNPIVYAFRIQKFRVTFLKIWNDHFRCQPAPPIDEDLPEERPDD
Outline: as §1

[4] = molecular target: human Adenosine A3 receptor (Homo sapiens (Human), UniProt P0DMS8); assay: Adenosine receptor TR-FRET binding assay (A3); details: inhibition of binding of 100 nM CA200645, CHO cell membranes
Chain of human Adenosine A3 receptor (P0DMS8 whole entry): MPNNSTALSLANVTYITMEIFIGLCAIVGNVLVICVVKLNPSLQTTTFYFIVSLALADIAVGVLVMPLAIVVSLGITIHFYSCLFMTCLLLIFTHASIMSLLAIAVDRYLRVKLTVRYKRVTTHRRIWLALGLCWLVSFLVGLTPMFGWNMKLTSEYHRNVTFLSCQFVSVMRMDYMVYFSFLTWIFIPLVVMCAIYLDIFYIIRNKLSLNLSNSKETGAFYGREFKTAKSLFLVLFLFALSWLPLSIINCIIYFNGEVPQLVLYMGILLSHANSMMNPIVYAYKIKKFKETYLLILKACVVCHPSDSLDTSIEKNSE
Outline: as §1

[5] = system: human PBMCs; assay: CD3/CD28 stimulated IL-2 release NECA reversal assay in human PBMCs; format: cell-based; details: PBMC, 1 uM NECA, 24 hours, IL-2 in culture supernatant
Outline: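 PBMCs from citrated healthy-donor blood plated at 50,000 cells/well on 1 ug/ml CD3 antibody with 1 ug/ml CD28 antibody, 1 uM NECA and 0.003-10 μM antagonist (final), 24 h at 37° C. Supernatant IL-2 measured by MSD immunoassay; % inhibition set against no-NECA control wells as 100%.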

[6] = system: CD8+T cells in human whole blood; assay: Measurement of pCREB in CD8+T cells in human whole blood; format: cell-based; details: 3 μM NECA, rolipram
Outline: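 Heparinised human whole blood pre-incubated 20 min at 37 °C with serially diluted A2a antagonists plus rolipram, then stimulated 60 min with 3 μM NECA (final). After fixation and red-cell lysis, white cells were permeabilized and stained for phospho-CREB and CD8; pCREB in CD8+ T cells measured by flow cytometry.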

Chain of human Adenosine A2a receptor (P29274 whole entry): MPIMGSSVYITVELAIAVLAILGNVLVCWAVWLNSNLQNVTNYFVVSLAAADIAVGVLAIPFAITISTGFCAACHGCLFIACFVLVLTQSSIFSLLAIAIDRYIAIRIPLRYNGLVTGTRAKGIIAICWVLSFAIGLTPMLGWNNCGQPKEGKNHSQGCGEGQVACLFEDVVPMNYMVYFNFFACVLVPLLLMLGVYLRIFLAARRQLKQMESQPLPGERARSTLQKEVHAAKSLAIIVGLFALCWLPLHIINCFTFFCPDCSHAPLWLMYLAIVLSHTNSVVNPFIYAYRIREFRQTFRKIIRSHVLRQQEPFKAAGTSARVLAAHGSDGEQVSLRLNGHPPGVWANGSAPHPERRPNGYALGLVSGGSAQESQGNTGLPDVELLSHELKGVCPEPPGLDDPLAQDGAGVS

Compound	Ki [1] [nM]	Ki [2] [nM]	Ki [3] [nM]	Ki [4] [nM]	IC50 [6] [nM]	IC50 [5] [nM]
Cc1cc(-c2sc(NC(=O)N3CCC(N4CCNC4=O)CC3)nc2-c2cccc(C#N)c2)cc(C)n1 [Example 6.30, N-[4-(3-Cyanophenyl)-5-(2,6-dimethyl-4-pyridyl)thiazol-2-yl]-4-(2-oxoimidazolidin-1-yl)piperidine-1-carboxamide]	0.82	2	97	187	530	6.9
CN=S1(=O)CCN(C(=O)Nc2nc(-c3cccc(C#N)c3)c(-c3cc(C)nc(C)c3)s2)CC1 [Example 6.32, N-[4-(3-Cyanophenyl)-5-(2,6-dimethyl-4-pyridyl)thiazol-2-yl]-1-methylimino-1-oxo-1,4-thiazinane-4-carboxamide]	0.83	5.4	109	719	230	8.6
Cc1cc(-c2sc(NC(=O)N3CCC(C#N)(C(C)(C)O)CC3)nc2-c2cccc(C#N)c2)cc(C)n1 [Example 6.41, 4-Cyano-N-[4-(3-cyanophenyl)-5-(2,6-dimethyl-4-pyridyl)thiazol-2-yl]-4-(1-hydroxy-1-methyl-ethyl)piperidine-1-carboxamide]	0.18	1.3	111	235	120	2.7
Cc1cc(-c2sc(NC(=O)N3CCN4C(=O)NCCC4C3)nc2-c2cccc(C#N)c2)cc(C)n1 (stereo not drawn) [Example 6.42, N-[4-(3-Cyanophenyl)-5-(2,6-dimethyl-4-pyridyl)thiazol-2-yl]-6-oxo-3,4,7,8,9,9a-hexahydro-1H-pyrazino[1,2-c]pyrimidine-2-carboxamide]	0.39	9	44	438	130	5
Cc1cc(-c2sc(NC(=O)N3CC4(C3)CC(C)(O)C4)nc2-c2cccc(C#N)c2)cc(C)n1 [Example 6.44, N-[4-(3-Cyanophenyl)-5-(2,6-dimethyl-4-pyridyl)thiazol-2-yl]-6-hydroxy-6-methyl-2-azaspiro[3.3]heptane-2-carboxamide]	0.4	2.4	151	299	100	3.1
Cc1cc(-c2sc(NC(=O)N3CC[C@H](C(C)(C)O)C3)nc2-c2cccc(C#N)c2)cc(C)n1 [Example 6.48, (3S)-N-[4-(3-Cyanophenyl)-5-(2,6-dimethyl-4-pyridyl)thiazol-2-yl]-3-(1-hydroxy-1-methyl-ethyl)pyrrolidine-1-carboxamide]	1.11	1.7	96	245	140	3.7
Cc1cc(-c2sc(NC(=O)N3CCN(C4COC4)CC3)nc2-c2cccc(C#N)c2)cc(C(F)(F)F)n1 [Example 6.61, N-[4-(3-Cyanophenyl)-5-[2-methyl-6-(trifluoromethyl)-4-pyridyl]thiazol-2-yl]-4-(oxetan-3-yl)piperazine-1-carboxamide]	1.52	3.2	112	57	350	17.2
Cc1cc(-c2sc(NC(=O)N3CC(C#N)(CO)C3)nc2-c2cccc(C#N)c2)cc(C)n1 [Example 6.64, 3-Cyano-N-[4-(3-cyanophenyl)-5-(2,6-dimethyl-4-pyridyl)thiazol-2-yl]-3-(hydroxymethyl)azetidine-1-carboxamide]	0.14	1.4	27	235	10	1.1
Cc1cc(-c2sc(NC(=O)N3CCN[C@H](C(C)(C)O)C3)nc2-c2cccc(C#N)c2)cc(C)n1 [Example 6.75, (3S)-N-[4-(3-Cyanophenyl)-5-(2,6-dimethyl-4-pyridyl)thiazol-2-yl]-3-(1-hydroxy-1-methyl-ethyl)piperazine-1-carboxamide]	0.81	4.8	99	361	180	5.9
Cc1cc(-c2sc(NC(=O)N3CCOC[C@H]3CO)nc2-c2cccc(C#N)c2)cc(C)n1 [Example 6.88, (3R)-N-[4-(3-Cyanophenyl)-5-(2,6-dimethyl-4-pyridyl)thiazol-2-yl]-3-(hydroxymethyl)morpholine-4-carboxamide]	1.9	8	65	385	480	7.8

Further lines, with some results ahead:

Ki [1] [nM]	Ki [2] [nM]	Ki [3] [nM]	Ki [4] [nM]	IC50 [6] [nM]	Compound	IC50 [5] [nM]
0.99	2.5	129	224	90	Cc1cc(-c2sc(NC(=O)N3CCC4(CCNC4=O)CC3)nc2-c2cccc(C#N)c2)cc(C)n1 [Example 6.24, N-[4-(3-Cyanophenyl)-5-(2,6-dimethyl-4-pyridyl)thiazol-2-yl]-1-oxo-2,8-diazaspiro[4.5]decane-8-carboxamide]	4.7
0.79	3.8	86	302	80	Cc1cc(-c2sc(NC(=O)N3CCC4(CCNC(=O)C4)CC3)nc2-c2cccc(C#N)c2)cc(C)n1 [Example 6.26, N-[4-(3-Cyanophenyl)-5-(2,6-dimethyl-4-pyridyl)thiazol-2-yl]-10-oxo-3,9-diazaspiro[5.5]undecane-3-carboxamide]	3.2
0.95	3.4	228	635	510	Cc1cc(-c2sc(NC(=O)N3CCC4(CCOCC4)C3)nc2-c2cccc(C#N)c2)cc(C)n1 [Example 6.29, N-[4-(3-Cyanophenyl)-5-(2,6-dimethyl-4-pyridyl)thiazol-2-yl]-8-oxa-2-azaspiro[4.5]decane-2-carboxamide]	5.3
0.83	3.6	170	278	580	Cc1cc(-c2sc(NC(=O)N3CCC4(CC3)CC(=O)N(C)C4)nc2-c2cccc(C#N)c2)cc(C)n1 [Example 6.38, N-[4-(3-Cyanophenyl)-5-(2,6-dimethyl-4-pyridyl)thiazol-2-yl]-2-methyl-3-oxo-2,8-diazaspiro[4.5]decane-8-carboxamide]	6
0.41	4.6	110	330	80	Cc1cc(-c2sc(NC(=O)N3CCC4(CCC(=O)NC4)CC3)nc2-c2cccc(C#N)c2)cc(C)n1 [Example 6.40, N-[4-(3-Cyanophenyl)-5-(2,6-dimethyl-4-pyridyl)thiazol-2-yl]-3-oxo-2,9-diazaspiro[5.5]undecane-9-carboxamide]	2.2
0.44	2	104	183	310	Cc1cc(-c2sc(NC(=O)N3CCC4(CCC(=O)N4)CC3)nc2-c2cccc(C#N)c2)cc(C)n1 [Example 6.45, N-[4-(3-Cyanophenyl)-5-(2,6-dimethyl-4-pyridyl)thiazol-2-yl]-2-oxo-1,8-diazaspiro[4.5]decane-8-carboxamide]	9.4
1.63	3.4	136	472	190	Cc1cc(-c2sc(NC(=O)N3CCC4(CCOC(=O)N4)CC3)nc2-c2cccc(C#N)c2)cc(C)n1 [Example 6.50, N-[4-(3-Cyanophenyl)-5-(2,6-dimethyl-4-pyridyl)thiazol-2-yl]-2-oxo-3-oxa-1,9-diazaspiro[5.5]undecane-9-carboxamide]	3.6
1.47	2.2	128	184	100	Cc1cc(-c2sc(NC(=O)N3CC4(CCNC4=O)C3)nc2-c2cccc(C#N)c2)cc(C)n1 [Example 6.59, N-[4-(3-Cyanophenyl)-5-(2,6-dimethyl-4-pyridyl)thiazol-2-yl]-5-oxo-2,6-diazaspiro[3.4]octane-2-carboxamide]	5.9
5.63	11.3	407	719	190	Cc1cc(-c2sc(NC(=O)N3CCC4(CCC(=O)N4C)CC3)nc2-c2cccc(C#N)c2)cc(C)n1 [Example 6.94, N-[4-(3-Cyanophenyl)-5-(2,6-dimethyl-4-pyridyl)thiazol-2-yl]-1-methyl-2-oxo-1,8-diazaspiro[4.5]decane-8-carboxamide]	10.5
2.81	11.1	42	304	580	Cc1cc(-c2sc(NC(=O)N3CCNCC3)nc2-c2cccc(C#N)c2)cc(C)n1 [Example 7, N-[4-(3-Cyanophenyl)-5-(2,6-dimethyl-4-pyridyl)thiazol-2-yl]piperazine-1-carboxamide]	16
